Laboratory results reported in patent US6358885B1, “Substituted phenylheterocyclic herbicides” (Mississippi State University, priority 1992, dated 2002).

How the values were obtained:
Test in all cases: Test B preemergence/postemergence greenhouse plant response rating 0 to 10
[1] = test system: barley; type: in vivo, Hordeum vulgare; conditions: for Plant response rating, Barley: 0 to 10 scale
Outline: (§1)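 Postemergence treatment of plants two to eighteen cm tall ran alongside preemergence treatment of planted seed, each using compound in a non-phytotoxic solvent.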

[2] = test system: barnyardgrass; type: in vivo, Echinochloa crus-galli; conditions: for Plant response rating, Barnyardgrass: 0 to 10 scale
Outline: as §1

[3] = test system: bedstraw; type: in vivo, Galium aparine; conditions: for Plant response rating, Bedstraw: 0 to 10 scale
Outline: as §1

[4] = test system: blackgrass; type: in vivo, Alopecurus myosuroides; conditions: for Plant response rating, Blackgrass: POSTEMERGENCE, 0 to 10 scale
Outline: as §1

[5] = test system: cheatgrass; type: in vivo, Bromus secalinus; conditions: for Plant response rating, Cheatgrass: 0 to 10 scale
Outline: as §1

[6] = test system: chickweed; type: in vivo, Stellaria media; conditions: for Plant response rating, Chickweed: 0 to 10 scale
Outline: as §1

[7] = test system: cocklebur; type: in vivo, Xanthium pensylvanicum; conditions: for Plant response rating, Cocklebur: 0 to 10 scale
Outline: as §1

[8] = test system: corn; type: in vivo, Zea mays; conditions: for Plant response rating, Corn: 0 to 10 scale
Outline: as §1

[9] = test system: cotton; type: in vivo, Gossypium hirsutum; conditions: for Plant response rating, Cotton: 0 to 10 scale
Outline: as §1

[10] = test system: crabgrass; type: in vivo, Digitaria spp.; conditions: for Plant response rating, Crabgrass: 0 to 10 scale
Outline: as §1

[11] = test system: giant foxtail; type: in vivo, Setaria faberii; conditions: for Plant response rating, Giant foxtail: 0 to 10 scale
Outline: as §1

[12] = test system: lambsquarters; type: in vivo, Chenopodium album; conditions: for Plant response rating, Lambsquarter: 0 to 10 scale
Outline: as §1

[13] = test system: morningglory; type: in vivo, Ipomoea hederacea; conditions: for Plant response rating, Morningglory: 0 to 10 scale
Outline: as §1

[14] = test system: rape; type: in vivo, Brassica napus; conditions: for Plant response rating, Rape: 0 to 10 scale
Outline: as §1

[15] = test system: rice; type: in vivo, Oryza sativa; conditions: for Plant response rating, Rice: 0 to 10 scale
Outline: as §1

[16] = test system: sorghum; type: in vivo, Sorghum bicolor; conditions: for Plant response rating, Sorghum: 0 to 10 scale
Outline: as §1

[17] = test system: soybean; type: in vivo, Glycine max; conditions: for Plant response rating, Soybean: 0 to 10 scale
Outline: as §1

[18] = test system: sugar beet; type: in vivo, Beta vulgaris; conditions: for Plant response rating, Sugar beet: 0 to 10 scale
Outline: as §1

[19] = test system: velvetleaf; type: in vivo, Abutilon theophrasti; conditions: for Plant response rating, Velvetleaf: 0 to 10 scale
Outline: as §1

[20] = test system: wheat; type: in vivo, Triticum aestivum; conditions: for Plant response rating, Wheat: 0 to 10 scale
Outline: as §1

[21] = test system: wild buckwheat; type: in vivo, Polygonum convolvulus; conditions: for Plant response rating, Wild buckwheat: 0 to 10 scale
Outline: as §1

[22] = test system: wild oat; type: in vivo, Avena fatua; conditions: for Plant response rating, Wild oat: 0 to 10 scale
Outline: as §1

[23] = test system: purple nutsedge; type: in vivo, Cyperus rotundus; conditions: for Plant response rating, Nutsedge: 0 to 10 scale
Outline: as §1

Clc1cc(Cl)c(-c2nn3c(c2Cl)CCCC3)cc1OCC1CC1 [Compound 69]
Plant response rating, Barley ([1]; POSTEMERGENCE, Rate 50 g/ha): 4 | Plant response rating, Barley ([1]; PREEMERGENCE, Rate 50 g/ha): 0 | Plant response rating (0 to 10 scale), Barley ([1]; PREEMERGENCE, Rate 200 g/ha): 0 | Plant response rating, Barley ([1]; Rate 200 g/ha, POSTEMERGENCE): 4 | Plant response rating, Barnyardgrass ([2]; POSTEMERGENCE, Rate 50 g/ha): 4 | Plant response rating, Barnyardgrass ([2]; PREEMERGENCE, Rate 50 g/ha): 0 | Plant response rating (0 to 10 scale), Barnyardgrass ([2]; PREEMERGENCE, Rate 200 g/ha): 1 | Plant response rating, Barnyardgrass ([2]; Rate 200 g/ha, POSTEMERGENCE): 6 | Plant response rating, Bedstraw ([3]; POSTEMERGENCE, Rate 50 g/ha): 5 | Plant response rating, Bedstraw ([3]; PREEMERGENCE, Rate 50 g/ha): 0 | Plant response rating (0 to 10 scale), Bedstraw ([3]; PREEMERGENCE, Rate 200 g/ha): 6 | Plant response rating, Bedstraw ([3]; Rate 200 g/ha, POSTEMERGENCE): 7 | Plant response rating, Blackgrass ([4]; Rate 50 g/ha): 3 | Plant response rating (0 to 10 scale), Blackgrass ([4]; PREEMERGENCE, Rate 200 g/ha): 2 | Plant response rating, Blackgrass ([4]; Rate 200 g/ha): 5 | Plant response rating, Cheatgrass ([5]; POSTEMERGENCE, Rate 50 g/ha): 3 | Plant response rating, Cheatgrass ([5]; PREEMERGENCE, Rate 50 g/ha): 0 | Plant response rating (0 to 10 scale), Cheatgrass ([5]; PREEMERGENCE, Rate 200 g/ha): 4 | Plant response rating, Cheatgrass ([5]; Rate 200 g/ha, POSTEMERGENCE): 6 | Plant response rating, Chickweed ([6]; POSTEMERGENCE, Rate 50 g/ha): 2 | Plant response rating, Chickweed ([6]; PREEMERGENCE, Rate 50 g/ha): 0 | Plant response rating (0 to 10 scale), Chickweed ([6]; PREEMERGENCE, Rate 200 g/ha): 0 | Plant response rating, Chickweed ([6]; Rate 200 g/ha, POSTEMERGENCE): 3 | Plant response rating, Cocklebur ([7]; POSTEMERGENCE, Rate 50 g/ha): 8 | Plant response rating, Cocklebur ([7]; PREEMERGENCE, Rate 50 g/ha): 0 | Plant response rating (0 to 10 scale), Cocklebur ([7]; PREEMERGENCE, Rate 200 g/ha): 0 | Plant response rating, Cocklebur ([7]; Rate 200 g/ha, POSTEMERGENCE): 8 | Plant response rating, Corn ([8]; POSTEMERGENCE, Rate 50 g/ha): 3 | Plant response rating, Corn ([8]; PREEMERGENCE, Rate 50 g/ha): 0 | Plant response rating (0 to 10 scale), Corn ([8]; PREEMERGENCE, Rate 200 g/ha): 0 | Plant response rating, Corn ([8]; Rate 200 g/ha, POSTEMERGENCE): 3 | Plant response rating, Cotton ([9]; POSTEMERGENCE, Rate 50 g/ha): 10 | Plant response rating, Cotton ([9]; PREEMERGENCE, Rate 50 g/ha): 0 | Plant response rating (0 to 10 scale), Cotton ([9]; PREEMERGENCE, Rate 200 g/ha): 0 | Plant response rating, Cotton ([9]; Rate 200 g/ha, POSTEMERGENCE): 10 | Plant response rating, Crabgrass ([10]; POSTEMERGENCE, Rate 50 g/ha): 4 | Plant response rating, Crabgrass ([10]; PREEMERGENCE, Rate 50 g/ha): 2 | Plant response rating (0 to 10 scale), Crabgrass ([10]; PREEMERGENCE, Rate 200 g/ha): 5 | Plant response rating, Crabgrass ([10]; Rate 200 g/ha, POSTEMERGENCE): 4 | Plant response rating, Giant foxtail ([11]; POSTEMERGENCE, Rate 50 g/ha): 5 | Plant response rating, Giant foxtail ([11]; PREEMERGENCE, Rate 50 g/ha): 2 | Plant response rating (0 to 10 scale), Giant foxtail ([11]; PREEMERGENCE, Rate 200 g/ha): 5 | Plant response rating, Giant foxtail ([11]; Rate 200 g/ha, POSTEMERGENCE): 5 | Plant response rating, Lambsquarter ([12]; POSTEMERGENCE, Rate 50 g/ha): 8 | Plant response rating, Lambsquarter ([12]; PREEMERGENCE, Rate 50 g/ha): 9 | Plant response rating (0 to 10 scale), Lambsquarter ([12]; PREEMERGENCE, Rate 200 g/ha): 10 | Plant response rating, Lambsquarter ([12]; Rate 200 g/ha, POSTEMERGENCE): 8 | Plant response rating, Morningglory ([13]; POSTEMERGENCE, Rate 50 g/ha): 7 | Plant response rating, Morningglory ([13]; PREEMERGENCE, Rate 50 g/ha): 0 | Plant response rating (0 to 10 scale), Morningglory ([13]; PREEMERGENCE, Rate 200 g/ha): 0 | Plant response rating, Morningglory ([13]; Rate 200 g/ha, POSTEMERGENCE): 7 | Plant response rating, Rape ([14]; POSTEMERGENCE, Rate 50 g/ha): 6 | Plant response rating, Rape ([14]; PREEMERGENCE, Rate 50 g/ha): 2 | Plant response rating (0 to 10 scale), Rape ([14]; PREEMERGENCE, Rate 200 g/ha): 3 | Plant response rating, Rape ([14]; Rate 200 g/ha, POSTEMERGENCE): 8 | Plant response rating, Rice ([15]; POSTEMERGENCE, Rate 50 g/ha): 5 | Plant response rating, Rice ([15]; PREEMERGENCE, Rate 50 g/ha): 0 | Plant response rating (0 to 10 scale), Rice ([15]; PREEMERGENCE, Rate 200 g/ha): 0 | Plant response rating, Rice ([15]; Rate 200 g/ha, POSTEMERGENCE): 6 | Plant response rating, Sorghum ([16]; POSTEMERGENCE, Rate 50 g/ha): 4 | Plant response rating, Sorghum ([16]; PREEMERGENCE, Rate 50 g/ha): 0 | Plant response rating (0 to 10 scale), Sorghum ([16]; PREEMERGENCE, Rate 200 g/ha): 0 | Plant response rating, Sorghum ([16]; Rate 200 g/ha, POSTEMERGENCE): 6 | Plant response rating, Soybean ([17]; POSTEMERGENCE, Rate 50 g/ha): 2 | Plant response rating, Soybean ([17]; PREEMERGENCE, Rate 50 g/ha): 0 | Plant response rating (0 to 10 scale), Soybean ([17]; PREEMERGENCE, Rate 200 g/ha): 0 | Plant response rating, Soybean ([17]; Rate 200 g/ha, POSTEMERGENCE): 5 | Plant response rating, Sugar beet ([18]; POSTEMERGENCE, Rate 50 g/ha): 10 | Plant response rating, Sugar beet ([18]; PREEMERGENCE, Rate 50 g/ha): 3 | Plant response rating (0 to 10 scale), Sugar beet ([18]; PREEMERGENCE, Rate 200 g/ha): 6 | Plant response rating, Sugar beet ([18]; Rate 200 g/ha, POSTEMERGENCE): 9 | Plant response rating, Velvetleaf ([19]; POSTEMERGENCE, Rate 50 g/ha): 10 | Plant response rating, Velvetleaf ([19]; PREEMERGENCE, Rate 50 g/ha): 1 | Plant response rating (0 to 10 scale), Velvetleaf ([19]; PREEMERGENCE, Rate 200 g/ha): 9 | Plant response rating, Velvetleaf ([19]; Rate 200 g/ha, POSTEMERGENCE): 9 | Plant response rating, Wheat ([20]; POSTEMERGENCE, Rate 50 g/ha): 4 | Plant response rating, Wheat ([20]; PREEMERGENCE, Rate 50 g/ha): 0 | Plant response rating (0 to 10 scale), Wheat ([20]; PREEMERGENCE, Rate 200 g/ha): 2 | Plant response rating, Wheat ([20]; Rate 200 g/ha, POSTEMERGENCE): 6 | Plant response rating, Wild buckwheat ([21]; POSTEMERGENCE, Rate 50 g/ha): 10 | Plant response rating, Wild buckwheat ([21]; PREEMERGENCE, Rate 50 g/ha): 0 | Plant response rating (0 to 10 scale), Wild buckwheat ([21]; PREEMERGENCE, Rate 200 g/ha): 0 | Plant response rating, Wild buckwheat ([21]; Rate 200 g/ha, POSTEMERGENCE): 10 | Plant response rating, Wild oat ([22]; POSTEMERGENCE, Rate 50 g/ha): 3 | Plant response rating, Wild oat ([22]; PREEMERGENCE, Rate 50 g/ha): 0 | Plant response rating (0 to 10 scale), Wild oat ([22]; PREEMERGENCE, Rate 200 g/ha): 0 | Plant response rating, Wild oat ([22]; Rate 200 g/ha, POSTEMERGENCE): 4 | Plant response rating, Nutsedge ([23]; POSTEMERGENCE, Rate 50 g/ha): 2 | Plant response rating, Nutsedge ([23]; PREEMERGENCE, Rate 50 g/ha): 0 | Plant response rating (0 to 10 scale), Nutsedge ([23]; PREEMERGENCE, Rate 200 g/ha): 0 | Plant response rating, Nutsedge ([23]; Rate 200 g/ha, POSTEMERGENCE): 2
